Reference: patent US11612611B2, “Composition and method for treating muscle cramps containing choline alfoscerate as active ingredient” (NANOSTEM CO., LTD., priority 2017, dated 2023)

What was measured:
[1] = system: patients with muscle cramps; assay: Frequency of muscle cramps for a week in patients with muscle cramps, one-month test; conditions: for Frequency of muscle cramps: per week
[2] = system: patients with nocturnal calf cramps; conditions: 1-2 mL of 0.25% lidocaine at MTrPs of gastrocnemius muscle; cited from earlier work
[3] = system: patients with muscle cramps; assay: Pain intensity (11-point PI-NRS) in patients with muscle cramps, one-month test; assay type: in vivo, human
Method: Patients who experience muscle cramps when stabilized for 3 months without taking exercise were selected as subjects.
The “trigger point injection group (control group)” patients were injected with 5 mL of 0.5% lidocaine at the trigger points (4-5 points), once a week.
(§1) The “choline alfoscerate intravenous administration group (Example 1)” patients were intravenously injected slowly with choline alfoscerate (1 g/4 mL) mixed in 100 mL of physiological saline, twice a week.
(§2) The “choline alfoscerate oral administration group (Example 2)” patients were […] with choline alfoscerate (400 mg/capsule), 3 times a day.
The test period was one month. […] The pain intensity was evaluated according to the 11-point pain intensity numerical rating scale (PI-NRS), where 0=no pain, weakest pain=1 and most severe pain=10. 2-point reduction in the pain intensity was considered clinically significant as reported (Farrar 2001, Rowbotham 2001, Hawker 2011). The pain intensity was measured on the first visit and was compared with the pain intensity 2 weeks (T1) and 4 weeks (T2) after the first drug administration.

[4] = system: patients with muscle cramps; assay: Side effects after the treatment in patients with muscle cramps; assay type: in vivo, human
Method: as §1, §2
Because choline alfoscerate has no effect on the kidney and liver, it is thought that it can be used for people with kidney or liver problems as a therapeutic agent for muscle cramps.

[5] = reported since 1969; cited from earlier work
[6] = trigger point injection (0.5% lidocaine), before drug administration
[7] = trigger point injection, 5 mL 0.5% lidocaine once a week, T1 (first 2 weeks)
[8] = trigger point injection, 5 mL 0.5% lidocaine once a week, T2 (second 2 weeks)
[9] = trigger point injection, 5 mL 0.5% lidocaine once a week, before drug administration (baseline)
[10] = Example 1, intravenous 1 g twice a week, T1 (first 2 weeks)
[11] = Example 1, intravenous 1 g twice a week, T2 (second 2 weeks)
[12] = Example 1, intravenous 1 g twice a week, before drug administration (baseline)
[13] = Example 2, oral 400 mg capsule 3 times a day, T1 (first 2 weeks)
[14] = Example 2, oral 400 mg capsule 3 times a day, T2 (second 2 weeks)
[15] = Example 2, oral 400 mg capsule 3 times a day, before drug administration (baseline)
[16] = intravenous administration group (Example 1), T1
[17] = intravenous administration group (Example 1), T2
[18] = intravenous administration group (Example 1), before drug administration
[19] = oral administration group (Example 2), T1
[20] = oral administration group (Example 2), T2
[21] = oral administration group (Example 2), before drug administration

CCN(CC)CC(=O)Nc1c(C)cccc1C [Control group (TPI), lidocaine]
frequency of muscle cramps for a week ([1]; trigger point injection (0.5% lidocaine), T1): 2.00 times
frequency of muscle cramps for a week ([1]; trigger point injection (0.5% lidocaine), T2): 1.43 times
frequency of muscle cramps for a week [1, 6]: 2.84 times
Frequency of muscle cramps [1, 7]: 2.00 ± 0.68
Frequency of muscle cramps [1, 8]: 1.43 ± 0.53
Frequency of muscle cramps [1, 9]: 2.84 ± 0.99
frequency of cramps for a week as compared to before the administration [2]: decreased significantly
insomnia severity index (ISI) as compared to before the administration [2]: decreased significantly
intensity of pain as compared to before the administration [2]: decreased significantly
pain intensity ([3]; trigger point injection (0.5% lidocaine), 2 weeks after first drug administration (T1)): 3.74 points
pain intensity ([3]; trigger point injection (0.5% lidocaine), 4 weeks after first drug administration (T2)): 2.11 points
pain intensity [3, 6]: 5.34 points
pain intensity [3, 7]: 3.74 ± 0.91
pain intensity [3, 8]: 2.11 ± 0.76
pain intensity [3, 9]: 5.34 ± 0.87

C[N+](C)(C)CCOP(=O)([O-])OC[C@H](O)CO [choline alfoscerate]
side effect after the treatment ([4]; intravenous administration group (Example 1)): no side effect
side effect after the treatment ([4]; oral administration group (Example 2)): no side effect
Frequency of muscle cramps [1, 10]: 1.56 ± 1.34
Frequency of muscle cramps [1, 11]: 0.88 ± 1.19
Frequency of muscle cramps [1, 12]: 4.91 ± 2.40
Frequency of muscle cramps [1, 13]: 2.67 ± 1.07
Frequency of muscle cramps [1, 14]: 1.05 ± 0.70
Frequency of muscle cramps [1, 15]: 5.25 ± 1.47
frequency of muscle cramps for a week as compared to control group ([1]; intravenous (Example 1), T1, P < 0.05): significant decrease
frequency of muscle cramps as compared to control group ([1]; intravenous (Example 1), T2): significant decrease
frequency of muscle cramps for a week [1, 16]: 1.56 times
frequency of muscle cramps for a week [1, 17]: 0.88 time
frequency of muscle cramps for a week [1, 18]: 4.91 times
frequency of muscle cramps for a week as compared to control group ([1]; oral (Example 2), T1, higher baseline frequency in this group): significant increase
frequency of muscle cramps as compared to control group ([1]; oral (Example 2), T2): significant decrease
frequency of muscle cramps for a week [1, 19]: 2.67 times
frequency of muscle cramps for a week [1, 20]: 1.05 times
frequency of muscle cramps for a week [1, 21]: 5.25 times
pain intensity [3, 10]: 2.56 ± 1.49
pain intensity [3, 11]: 1.32 ± 0.91
pain intensity [3, 12]: 6.50 ± 1.26
pain intensity [3, 13]: 3.94 ± 1.17
pain intensity [3, 14]: 1.88 ± 0.92
pain intensity [3, 15]: 6.31 ± +0.94
pain intensity as compared to trigger point injection group (control group) ([3]; intravenous (Example 1), at both T1 and T2, P < 0.05): significant decrease
pain intensity [3, 16]: 2.56 points
pain intensity [3, 17]: 1.32 points
pain intensity [3, 18]: 6.50 points
pain intensity [3, 19]: 3.94 points
pain intensity [3, 20]: 1.88 points
pain intensity [3, 21]: 6.31 points

C=C[C@H]1C[N@@]2CC[C@H]1C[C@H]2[C@H](O)c1ccnc2ccc(OC)cc12 [quinine]
death reported [5]: 93 cases
severe side effects reported [5]: 665 cases
